Source: the supplement of paper PMC10307832

Assays:
Experiment in all cases: relative viability (nuclei count vs DMSO), 5 days (fraction); higher = more cells survive
[1] = compound: CS(=O)(=O)c1ccc(-c2cnc(N)c(C(=O)Nc3ccccc3)n2)cc1 [VE-821]
Procedure, shortened: (§1)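 Hoechst staining, done together with fixation and permeabilisation, marked nuclei for 4× imaging and MetaXpress counting. This followed 5 days without medium change after lung cancer cell lines, kept overnight at 37 °C in 1536-well plates, were pinned with five library-drug doses (not always all listed) spaced by √10 on vehicle-anchored plates. Viability is the ratio of treated-well to vehicle-well nuclei, expressed as a median across plates. Plates passed only at control CV below 25% with at least one doubling.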

[2] = compound: N#CC[C@H](C1CCCC1)n1cc(-c2ncnc3[nH]ccc23)cn1 [Ruxolitinib]
Procedure, shortened: as §1

[3] = compound: CS(=O)(=O)c1ccc(C(=O)Nc2ccc(Cl)c(-c3ccccn3)c2)c(Cl)c1 [Vismodegib]
Procedure, shortened: as §1

[4] = compound: CS(=O)(=O)c1ccc(-c2cnc(N)c(C(=O)Nc3ccccc3)n2)cc1 [VE-821] + Cc1nc(NC(=O)N2CCC[C@H]2C(N)=O)sc1-c1ccnc(C(C)(C)C(F)(F)F)c1 [Alpelisib] (partner 2 µM)
Procedure, shortened: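 Lung cancer cell lines were pin-tool dosed in 1536-well plates on the day after seeding, with either a lone drug or a fixed anchor-drug dose plus five library-drug doses (not always all listed) in √10 steps. Nuclei were counted on 4× images after 5 days. Relative viability is the ratio of treated-well to vehicle-well nuclei counts, with each value a median of duplicate plates.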

Cell Line	relative viability ([1]; 0.08 µM)	relative viability ([1]; 0.253 µM)	relative viability ([1]; 0.8 µM)	relative viability ([1]; 2.53 µM)	relative viability ([1]; 8 µM)	relative viability ([2]; 0.08 µM)	relative viability ([2]; 0.253 µM)	relative viability ([2]; 0.8 µM)	relative viability ([2]; 2.53 µM)	relative viability ([2]; 8 µM)	relative viability ([3]; 0.08 µM)	relative viability ([3]; 0.253 µM)	relative viability ([3]; 0.8 µM)	relative viability ([3]; 2.53 µM)	relative viability ([3]; 8 µM)	relative viability ([4]; first compound 0.08 µM)	relative viability ([4]; first compound 0.253 µM)	relative viability ([4]; first compound 0.8 µM)	relative viability ([4]; first compound 2.53 µM)	relative viability ([4]; first compound 8 µM)
NCI-H2126	1.02	0.924	0.966	0.96	0.729	1	1.02	1.09	1.12	0.986	0.994	0.962	0.949	0.968	0.927	0.757	0.744	0.625	0.747	0.645
NCI-H460	1.05	0.983	0.947	0.82	0.56	1.03	1.06	1.07	1	0.96	1.01	0.979	1	0.981	1.03	0.561	0.394	0.23	0.279	0.0265
NCI-H1703	1.09	0.793	0.836	0.689	0.444	0.994	0.862	0.978	0.498	0.663	0.998	0.826	1.21	0.824	1.33	0.379	0.253	0.279	0.343	0.233
NCI-H1395	0.963	0.89	0.792	0.888	0.665	0.816	0.767	1.02	0.913	0.771	0.834	0.878	0.853	0.829	1	1.46	1.08	0.705	1.14	0.659
NCI-H647	1.11	0.9	0.798	0.987	0.506	0.81	0.962	1.04	0.897	0.836	0.913	0.863	0.978	0.964	1.14	1.17	1.07	0.944	0.901	0.424
NCI-H23	1.03	0.888	0.983	0.818	0.319	1.04	1.01	0.995	0.84	0.772	1.05	0.931	0.886	0.926	0.773	0.734	0.69	0.512	0.624	0.416
H3255	0.987	0.961	0.92	1.06	0.944	0.73	0.938	1.09	0.969	0.811	0.921	0.921	0.951	0.936	0.962	0.821	0.76	0.665	0.844	0.66
NCI-H1651	0.976	0.954	0.922	0.977	0.969	0.948	0.978	0.971	0.939	0.976	0.945	0.976	0.947	0.956	1.02	1.09	1.08	0.702	1.01	0.849
